Non-standard residues stand in square brackets, D forms with d. Residues, ends and D or L forms follow the SMILES beside them. *: point of attachment. sY = N[C@@H](Cc1ccc(OS(=O)(=O)O)cc1)C(=O)O; Nle = CCCC[C@H](N)C(=O)O; Boc = CC(C)(C)OC(=O)*
What was measured:
Rattus norvegicus = organism: Rattus norvegicus; assay: Ability of compound to stimulate in vitro amylase release from rat pancreatic acini; assay type: functional
Cholecystokinin receptor = biological target: T1, Cholecystokinin receptor (Rattus norvegicus, UniProt P30551+P30553); assay: Ability of compound to Inhibit the binding of [125I]BH-CCK-8 to Cholecystokinin receptor in isolated rat pancreatic acini; assay type: protein assay
T1 sequence (P30551 whole entry): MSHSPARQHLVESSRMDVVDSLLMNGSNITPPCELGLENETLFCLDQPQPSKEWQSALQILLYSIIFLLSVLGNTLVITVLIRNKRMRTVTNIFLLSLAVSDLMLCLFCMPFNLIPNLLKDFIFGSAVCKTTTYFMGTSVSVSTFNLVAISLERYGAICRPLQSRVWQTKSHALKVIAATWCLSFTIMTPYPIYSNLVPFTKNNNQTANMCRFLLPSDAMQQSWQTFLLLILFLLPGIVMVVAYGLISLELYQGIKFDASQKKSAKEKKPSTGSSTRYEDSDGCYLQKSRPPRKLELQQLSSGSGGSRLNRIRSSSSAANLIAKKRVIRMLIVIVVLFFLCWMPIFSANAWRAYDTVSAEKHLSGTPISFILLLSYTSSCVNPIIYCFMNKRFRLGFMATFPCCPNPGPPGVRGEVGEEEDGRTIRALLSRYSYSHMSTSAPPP
T1 sequence (P30553 whole entry): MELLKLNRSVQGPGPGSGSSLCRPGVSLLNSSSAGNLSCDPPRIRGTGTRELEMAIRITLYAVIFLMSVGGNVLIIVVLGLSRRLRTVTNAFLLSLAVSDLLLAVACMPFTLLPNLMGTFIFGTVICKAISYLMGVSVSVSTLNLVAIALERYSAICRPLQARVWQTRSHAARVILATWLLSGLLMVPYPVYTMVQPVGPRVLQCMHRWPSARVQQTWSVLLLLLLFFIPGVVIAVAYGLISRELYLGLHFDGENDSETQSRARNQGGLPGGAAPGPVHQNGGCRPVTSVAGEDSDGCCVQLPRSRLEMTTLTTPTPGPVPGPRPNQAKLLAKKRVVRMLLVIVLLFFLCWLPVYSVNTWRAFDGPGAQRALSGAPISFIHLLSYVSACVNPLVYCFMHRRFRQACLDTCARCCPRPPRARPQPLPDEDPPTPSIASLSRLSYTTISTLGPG

[1] = Ability of compound to Inhibit the binding of [125I]BH-CCK-8 to Cholecystokinin receptor in isolated guinea pig brain membranes

In the case of CCCC[C@H](NC(=O)[C@H](Cc1ccc(OS(=O)(=O)O)cc1)NC(=O)C(CC(=O)O)NC(=O)OC(C)(C)C)C(=O)NCC(=O)N[C@H](Cc1c[nH]c2ccccc12)C(=O)N[C@@H](CCCC)C(=O)N[C@H](CC(=O)O)NC(=O)CCc1ccccc1 (some centres not stated), the EC50 (Rattus norvegicus) is reported as 130 nM, the IC50 (Cholecystokinin receptor) is reported as 100 nM and the IC50 [1] is reported as 40 nM.
In the case of CCCC[C@H](NC(=O)[C@H](Cc1ccc(OS(=O)(=O)O)cc1)NC(=O)C(CC(=O)O)NC(=O)OC(C)(C)C)C(=O)NCC(=O)N[C@H](Cc1c[nH]c2ccccc12)C(=O)N[C@@H](CCCC)C(=O)N[C@H](CC(=O)O)NC(=O)[C@@H](Cc1ccccc1)C(N)=O (some centres not stated), the EC50 (Rattus norvegicus) is reported as 0.7 nM, the IC50 (Cholecystokinin receptor) is reported as 100 nM and the IC50 [1] is reported as 10 nM.
CCCC[C@H](NC(=O)[C@H](Cc1ccc(OS(=O)(=O)O)cc1)NC(=O)OC(C)(C)C)C(=O)NCC(=O)N[C@@H](Cc1c[nH]c2ccccc12)C(=O)N[C@@H](CCCC)C(=O)N[C@@H](CC(=O)O)C(=O)N[C@@H](Cc1ccccc1)C(N)=O (Boc-[sY][Nle]GW[Nle]DF-NH2) showed an EC50 (Rattus norvegicus) of 0.05 nM.
CCCC[C@H](NC(=O)[C@H](Cc1ccc(OS(=O)(=O)O)cc1)NC(=O)OC(C)(C)C)C(=O)NCNC(=O)[C@H](Cc1c[nH]c2ccccc12)NC(=O)[C@H](CCCC)NC(=O)[C@H](CC(=O)O)NC(=O)CCc1ccccc1 gave an EC50 (Rattus norvegicus) of 17 nM, an IC50 (Cholecystokinin receptor) of 40 nM and an IC50 [1] of 100 nM.
Work on CCCC[C@H](NC(=O)[C@H](Cc1ccc(OS(=O)(=O)O)cc1)NC(=O)OC(C)(C)C)C(=O)NCC(=O)N[C@@H](Cc1c[nH]c2ccccc12)C(=O)N[C@@H](CCCC)C(=O)N[C@@H](CC(=O)O)C(=O)N[C@@H](Cc1ccccc1)NC=O yielded an EC50 (Rattus norvegicus) of 30 nM, an IC50 (Cholecystokinin receptor) of 500 nM and an IC50 [1] of 30 nM.
In the case of CCCC[C@H](NC(=O)[C@H](Cc1ccc(OS(=O)(=O)O)cc1)NC(=O)OC(C)(C)C)C(=O)NCC(=O)N[C@H](Cc1c[nH]c2ccccc12)C(=O)N[C@@H](CCCC)C(=O)N[C@@H](CC(=O)O)C(=O)N[C@@H](Cc1ccccc1)NC=O, the EC50 (Rattus norvegicus) is reported as 1700 nM, the IC50 (Cholecystokinin receptor) is reported as 4000 nM and the IC50 [1] is reported as 100 nM.
Work on CCCC[C@@H](NC(=O)CC(=O)N[C@H](Cc1c[nH]c2ccccc12)C(=O)N[C@@H](CCCC)C(=O)N[C@H](CC(=O)O)C(=O)N[C@@H](Cc1ccccc1)C(N)=O)NC(=O)[C@H](Cc1ccc(OS(=O)(=O)O)cc1)NC(=O)C(CC(=O)O)NC(=O)OC(C)(C)C (some centres not stated) yielded an EC50 (Rattus norvegicus) of 6 nM, an IC50 (Cholecystokinin receptor) of 500 nM and an IC50 [1] of 2 nM.
CCCC[C@H](NC(=O)[C@H](Cc1ccc(OS(=O)(=O)O)cc1)NC(=O)OC(C)(C)C)C(=O)NCNC(=O)[C@H](Cc1c[nH]c2ccccc12)NC(=O)[C@H](CCCC)NC(=O)[C@H](CC(=O)O)NC(=O)[C@@H](Cc1ccccc1)C(N)=O showed an EC50 (Rattus norvegicus) of 30 nM, an IC50 (Cholecystokinin receptor) of 20 nM and an IC50 [1] of 1000 nM.
